Key:
[1] = system: Peripheral Blood Mononuclear Cells; experiment: PepChip kinome array: in vitro phosphorylation of peptide array by lysates of LPS-stimulated PBMCs; format: cell-based, human
Experimental: Peripheral Blood Mononuclear Cells (PBMCs) were isolated from peripheral blood from healthy volunteers using standard density-gradient centrifugation over Ficoll-Paque Plus (Amersham Pharmacia Biotech AB, Uppsala, Sweden) after washing in resuspension in IMDM supplemented with 10% FBS, penicillin, streptomycin and amphotericin (hereafter referred to as complete IMDM).
For kinome array samples, 10^7 PBMCs were suspended in 5 ml media (IMDM supplemented with 1.0% human serum). LPS stimulation consisted of a […] (37° C., 5% CO2) with 100 ng/ml LPS (E. coli, serotype 0111:B4). CNI treated PBMCs were maintained in media dosed with 1.0 μM CNI-1493 (Cytokine PharmaSciences, Inc.) 1 hour before and during incubation for LPS stimulation. Stimulations were terminated by an ice-cold PBS wash. PBMCs were lysed in 200 μl cell lysis buffer (20 mM Tris-HCl (pH 7.5), 150 mM NaCl, 1 mM Na2EDTA, 1 mM EGTA, 1% Triton, 2.5 mM sodium pyrophosphate, 1 mM MgCl2, 1 mM beta-glycerophosphate, 1 mM Na3VO4, 1 mM NaF, 1 μg/ml leupeptin, 1 μg/ml aprotinin, 1 mM PMSF) and the volume of the cell lysate were equalised with dH2O. The cell lysates were subsequently cleared on a 0.22 μm filter. PepChip incubation mix was produced by adding 10 μl of filter-cleared activation mix (50% glycerol, 50 μM ATP, 0.05% v/v Brij-35, 0.25 mg/ml BSA, ^33P-γ-ATP (1000 kBq)). Next, the PepChip mix is added onto the chip and the chip is kept at 37° C. in a humidified stove for 90 minutes. Subsequently, the PepChip was washed once with TBST, twice in 2M NaCl and twice in demineralised H2O and air-dry the PepChip slips. The experiments were performed three times in duplicate. The average inter-experimental variance in relative values was less than 5% for all spots.
The chips were exposed to a phosphoimager plate for 72 hours and the spots were analysed on AIDA analysing software. For graphical visualisation of the spots in FIG. 2 the data of four arrays was averaged to eliminate false positives.

[2] = steroid- and infliximab-resistant Crohn's disease; cited from earlier work
[3] = lysates of Semapimod-treated, lipopolysaccharide-stimulated PBMCs

With `C/C(=N\NC(=N)N)c1cc(NC(=O)CCCCCCCCC(=O)Nc2cc(/C(C)=N/NC(=N)N)cc(/C(C)=N/NC(=N)N)c2)cc(/C(C)=N/NC(=N)N)c1` [Semapimod] the “LPS + CNI: peptide phosphorylation, Kinase Src, Substrate Annexin2” value ([1]; PBMC lysate, 1.0 μM CNI-1493, 100 ng/ml LPS, Control 4438, LPS 8745) was 287, the “LPS + CNI: peptide phosphorylation, Kinase PKC, Substrate EIF4E” value ([1]; PBMC lysate, 1.0 μM CNI-1493, 100 ng/ml LPS, Control 4494, LPS 41272) was 6699 and the “LPS + CNI: peptide phosphorylation, Kinase and Substrate not given” value ([1]; PBMC lysate, 1.0 μM CNI-1493, 100 ng/ml LPS, Control 4960, LPS 530) was 254. For the same molecule, the “LPS + CNI: peptide phosphorylation, Kinase CKI, Substrate GS” value ([1]; PBMC lysate, 1.0 μM CNI-1493, 100 ng/ml LPS, Control 5616, LPS 13386) was 300, the “LPS + CNI: peptide phosphorylation, Kinase CaM-II, Substrate Vimentin” value ([1]; PBMC lysate, 1.0 μM CNI-1493, 100 ng/ml LPS, Control 6930, LPS 4147) was 248 and the “LPS + CNI: peptide phosphorylation, Kinase Lck/Fyn, Substrate MHC-I” value ([1]; PBMC lysate, 1.0 μM CNI-1493, 100 ng/ml LPS, Control 7040, LPS 1370) was 230. For the same molecule, the “LPS + CNI: peptide phosphorylation, Kinase not given, Substrate GS” value (“LPS + CNI … Kinase not given, Substrate GS” for short) ([1]; PBMC lysate, 1.0 μM CNI-1493, 100 ng/ml LPS, Control 9758, LPS 17052) was 24415, the “LPS + CNI: peptide phosphorylation, Kinase p38, Substrate MAPKAP2” value ([1]; PBMC lysate, 1.0 μM CNI-1493, 100 ng/ml LPS, Control 10168, LPS 21440) was 1150 and the “LPS + CNI: peptide phosphorylation, Kinase PKC, Substrate c-Src” value ([1]; PBMC lysate, 1.0 μM CNI-1493, 100 ng/ml LPS, Control 10728, LPS 10416) was 17000. The “LPS + CNI: peptide phosphorylation, Kinase PKC, Substrate c-RAF” value ([1]; PBMC lysate, 1.0 μM CNI-1493, 100 ng/ml LPS, Control 10764, LPS 13640) was 9522, the “LPS + CNI: peptide phosphorylation, Kinase not given, Substrate Tau” value ([1]; PBMC lysate, 1.0 μM CNI-1493, 100 ng/ml LPS, Control 15846, LPS 10500) was 27753 and the “LPS + CNI: peptide phosphorylation, Kinase v-Fps, Substrate Caldesmon” value ([1]; PBMC lysate, 1.0 μM CNI-1493, 100 ng/ml LPS, Control 16002, LPS 22800) was 31584. The “LPS + CNI: peptide phosphorylation, Kinase and Substrate not given” value ([1]; PBMC lysate, 1.0 μM CNI-1493, 100 ng/ml LPS, Control 16320, LPS 822) was 300, the “LPS + CNI … Kinase not given, Substrate GS” value ([1]; PBMC lysate, 1.0 μM CNI-1493, 100 ng/ml LPS, Control 16920, LPS 19500) was 23664 and the “LPS + CNI: peptide phosphorylation, Kinase CKII, Substrate GS” value ([1]; PBMC lysate, 1.0 μM CNI-1493, 100 ng/ml LPS, Control 17680, LPS 5350) was 13120. For the same molecule, the “LPS + CNI: peptide phosphorylation, Kinase Lck, Substrate Tec” value ([1]; PBMC lysate, 1.0 μM CNI-1493, 100 ng/ml LPS, Control 18096, LPS 13824) was 300, the “LPS + CNI: peptide phosphorylation, Kinase PKC, Substrate Trop” value ([1]; PBMC lysate, 1.0 μM CNI-1493, 100 ng/ml LPS, Control 18786, LPS 23230) was 40000 and the “LPS + CNI … Kinase not given, Substrate GS” value ([1]; PBMC lysate, 1.0 μM CNI-1493, 100 ng/ml LPS, Control 20736, LPS 20592) was 26477. The “LPS + CNI: peptide phosphorylation, Kinase p34cdc2, Substrate Lamin B1” value ([1]; PBMC lysate, 1.0 μM CNI-1493, 100 ng/ml LPS, Control 21000, LPS 11165) was 300, the “LPS + CNI: peptide phosphorylation, Kinase not given, Substrate EIF4F” value ([1]; PBMC lysate, 1.0 μM CNI-1493, 100 ng/ml LPS, Control 21000, LPS 25200) was 24624 and the “LPS + CNI: peptide phosphorylation, Kinase PKC, Substrate BICKS” value ([1]; PBMC lysate, 1.0 μM CNI-1493, 100 ng/ml LPS, Control 23400, LPS 38086) was 15980. For the same molecule, the “LPS + CNI: peptide phosphorylation, Kinase PKC, Substrate MARCKS” value ([1]; PBMC lysate, 1.0 μM CNI-1493, 100 ng/ml LPS, Control 23714, LPS 16401) was 13426, the “LPS + CNI: peptide phosphorylation, Kinase not given, Substrate MBP” value (from here on “LPS + CNI … Kinase not given, Substrate MBP”) ([1]; PBMC lysate, 1.0 μM CNI-1493, 100 ng/ml LPS, Control 26208, LPS 36442) was 51888 and the “LPS + CNI: peptide phosphorylation, Kinase not given, Substrate Vimentin” value ([1]; PBMC lysate, 1.0 μM CNI-1493, 100 ng/ml LPS, Control 26240, LPS 30889) was 59840. For the same molecule, the “LPS + CNI … Kinase not given, Substrate MBP” value ([1]; PBMC lysate, 1.0 μM CNI-1493, 100 ng/ml LPS, Control 26481, LPS 23852) was 51414, the “LPS + CNI: peptide phosphorylation, Kinase p42/44, Substrate MBP” value ([1]; PBMC lysate, 1.0 μM CNI-1493, 100 ng/ml LPS, Control 28710, LPS 536) was 23296 and the “LPS + CNI … Kinase not given, Substrate GS” value ([1]; PBMC lysate, 1.0 μM CNI-1493, 100 ng/ml LPS, Control 31500, LPS 31050) was 51102. For the same molecule, the “LPS + CNI: peptide phosphorylation, Kinase p42/44, Substrate MBP” value ([1]; PBMC lysate, 1.0 μM CNI-1493, 100 ng/ml LPS, Control 33814, LPS 14514) was 26352, the “LPS + CNI: peptide phosphorylation, Kinase PKA, Substrate MARCKS” value ([1]; PBMC lysate, 1.0 μM CNI-1493, 100 ng/ml LPS, Control 34295, LPS 31647) was 62514 and the “LPS + CNI: peptide phosphorylation, Kinase not given, Substrate c-Src” value ([1]; PBMC lysate, 1.0 μM CNI-1493, 100 ng/ml LPS, Control 34410, LPS 2470) was 319. For the same molecule, the “LPS + CNI: peptide phosphorylation, Kinase not given, Substrate Vimentin” value ([1]; PBMC lysate, 1.0 μM CNI-1493, 100 ng/ml LPS, Control 37760, LPS 18020) was 44200, the “LPS + CNI … Kinase not given, Substrate MBP” value ([1]; PBMC lysate, 1.0 μM CNI-1493, 100 ng/ml LPS, Control 38634, LPS 36464) was 38354 and the “LPS + CNI … Kinase not given, Substrate MBP” value ([1]; PBMC lysate, 1.0 μM CNI-1493, 100 ng/ml LPS, Control 40793, LPS 36600) was 55572. For the same molecule, the “LPS + CNI: peptide phosphorylation, Kinase PKC, Substrate MBP” value ([1]; PBMC lysate, 1.0 μM CNI-1493, 100 ng/ml LPS, Control 47940, LPS 18624) was 15680, the “LPS + CNI: peptide phosphorylation, Kinase not given, Substrate MLC-2” value ([1]; PBMC lysate, 1.0 μM CNI-1493, 100 ng/ml LPS, Control 48400, LPS 53482) was 33674 and the “LPS + CNI … Kinase not given, Substrate MBP” value ([1]; PBMC lysate, 1.0 μM CNI-1493, 100 ng/ml LPS, Control 60630, LPS 62900) was 65076. For the same molecule, the “LPS + CNI: peptide phosphorylation, Kinase PKA, p42/44, Substrate CgA” value ([1]; PBMC lysate, 1.0 μM CNI-1493, 100 ng/ml LPS, Control 62088, LPS 548) was 6700, the “capacity to phosphorylate peptides representing consensus sequences for MAP kinase family members” value [1, 3] was “strongly impaired” and the “phosphorylation of a peptide representing a consensus phosphorylation site for MEK kinase” value [1, 3] was “inhibited”. For the same molecule, the “phosphorylation of a peptide representing the PKC consensus phosphorylation site in c-Raf” value [1, 3] was “not impaired” and the “clinical effect in Crohn's disease” value [2] was “induces clinical remission and endoscopal healing”.

Source: US20090036540A1, “Guanylhydrazones in Methods of Treatment or Diagnosis as Modulators of Signal Transduction” (Cytokine PharmaSciences, Inc., priority 2003, published 2009)
